Results from patent US5106835A, “Renin inhibitors” (American Cyanamid Company, priority 1990, dated 1992).
pIC50: −log10 of the molar value.

Biological target: T1, human kidney renin (Homo sapiens, UniProt P00797)
T1 construct: Human renin was prepared from human kidney; from tissue; host or cells: human kidney
T1 sequence (P00797 67-406): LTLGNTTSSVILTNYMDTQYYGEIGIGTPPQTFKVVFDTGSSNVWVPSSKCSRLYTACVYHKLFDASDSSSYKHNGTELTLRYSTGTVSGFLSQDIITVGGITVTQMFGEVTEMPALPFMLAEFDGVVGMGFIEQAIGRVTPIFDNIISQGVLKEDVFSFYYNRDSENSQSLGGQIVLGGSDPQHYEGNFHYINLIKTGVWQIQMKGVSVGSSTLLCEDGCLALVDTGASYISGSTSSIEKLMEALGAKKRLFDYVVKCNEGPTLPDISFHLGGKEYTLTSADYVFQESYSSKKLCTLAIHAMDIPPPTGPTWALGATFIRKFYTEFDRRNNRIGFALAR
Experiment: Radioimmunoassay screen for renin inhibitors (angiotensin I generation, then quantitation by radioimmunoassay)
Type: biochemical
Conditions: for pIC50: human kidney renin, purified human plasma angiotensinogen, maleate buffer pH 6.0, 1 hour at 37° C., read-out: IC50 Molar Concentration
Method: Radioimmunoassay Screen For Renin Inhibitors
The in vitro method for the screening of anti-renin compounds involves, first, angiotensin I generation, and second, the quantitation of the angiotensin I produced by radioimmunoassay.
The incubation medium consisted of 20 μl of purified human plasma angiotensinogen (1); 40 μl of human kidney renin (2); 5 μl of phenylmethylsulfonyl fluoride; 10 μl of disodium EDTA (10 mM); 10 μl of antirenin compound (5×10^-3, 5×10^-4, 5×10^-5) in dimethylformamide, or ethanol and a suitable amount of maleate buffer (77mM, pH 6.0) to make a final volume of 500 μl. The reaction mixture was incubated for 1 hour at 37° C. and the enzymatic reaction was stopped by placing the tube in ice-cold water. The angiotension I generated during the incubation was measured by a radioimmunoassay plasma renin activity kit (Clinical Assays, Inc.).
Radioimmunoassay Procedure
The incubation medium consisted of either 100 μl aliquots of the above reaction mixture or a standard amount of angiotensin I; 1000 μl of phosphate buffer (100 mM, pH7.6) and 100 μl of (^125 I)angiotensin in a gamma-coat, tube. After three hours of incubation at room temperature, the tubes were decanted, and the radioactivity of each tube was determined in a gamma counter. Duplicate determinations were performed for each incubation. The results were expressed in ng of angiotensin I generated per ml of generation medium per hour of incubation (ng/AI/ml/hr), and the % of inhibition was obtained by the following: % inhibition= [formula]
The results of this test on representative compounds of this invention appear in Table I, expressed as an IC50.
(1) The human plasma angiotensinogen derived from the blood of a person receiving oral contraceptive pills was purified by chromatography on a pepstatin-aminohexyl-agarose column.
(2) Human renin was prepared from human kidney.

| pIC50 | SMILES | other results |
| --- | --- | --- |
| 5.00 | CC(C)C[C@@H](C=O)NC(=O)C(NC(=O)[C@H](Cc1ccccc1)NC(=O)OCc1ccccc1)OC(C)C (stereo partly drawn) [N-[(Phenylmethoxy)carbonyl]-L-phenylalanyl-N-(S)-1-formyl-3-methylbutyl]-L-2-(1-methylethoxy)glycinamide] |  |
|  | CC(C)COC(NC(=O)[C@H](Cc1ccccc1)NC(=O)OCc1ccccc1)C(=O)N[C@H](C=O)Cc1ccccc1 (stereo partly drawn) [N-[(Phenylmethoxy)carbonyl]-L-phenylalanyl-N-[(S)-1-formyl-2-phenylethyl]-L-2-(2-methylpropoxy)glycinamide] | % Renin Inhibition (Molar Concentration 1 × 10^-4): 66%; % Renin Inhibition (Molar Concentration 1 × 10^-5): 59% |
|  | CC(C)CO[C@H](NC(=O)[C@H](Cc1ccccc1)NC(=O)OCc1ccccc1)C(=O)N[C@H](C=O)CC(C)C [N-[(Phenylmethoxy)carbonyl]-L-phenylalanyl-N-[(S)-1-formyl-3-methylbutyl]-L-2-(2-methylpropoxy)glycinamide] | % Renin Inhibition (Molar Concentration 1 × 10^-4): 70%; % Renin Inhibition (Molar Concentration 1 × 10^-5): 50% |
| 7.06 | CC(C)COC(NC(=O)[C@H](Cc1ccccc1)NC(=O)OCc1ccccc1)C(=O)N[C@@H](CC1CCCCC1)[C@@H](O)c1nccs1 (stereo partly drawn) [N-[(Phenylmethoxy)carbonyl]-phenylalanyl-L-2-(2-methylpropox] [N-[(Phenylmethoxy)carbonyl]-L-phenylalanyl-L-2-(2-methylpropoxy)glycyl]-(1R,2S)-2-amino-3-cyclohexyl-1-(2-thiazolyl)propan-1-ol] |  |
|  | CC(C)CO[C@@H](NC(=O)[C@H](Cc1ccccc1)NC(=O)OCc1ccccc1)C(=O)N[C@@H](Cc1ccccc1)[C@@H](O)c1nccs1 [N-[N-(Benzyloxycarbonyl)-L-phenylalanyl-D-2-(2-methylpropoxy)glycyl]-(S)2-amino-3-phenyl-(R)1-(2-thiazoly)propan-1-ol] | % Renin Inhibition (Molar Concentration 1 × 10^-4): 74.6%; % Renin Inhibition (Molar Concentration 1 × 10^-5): 69.2%; % Renin Inhibition (Molar Concentration 1 × 10^-6): 41.0% |
| 6.55 | CC(C)C[C@H](NC(=O)C(NC(=O)[C@H](Cc1ccccc1)NC(=O)OCc1ccccc1)OC(C)C)[C@@H](O)c1nccs1 (stereo partly drawn) [N-[N-(Benzyloxycarbonyl)-L-phenylalanyl-L-2-(1-methylethoxy)glycyl]-(S)2-amino-4-methyl-(R)1-(2-thiazolyl)pentan-1-ol] |  |
|  | CC(C)COC(NC(=O)[C@H](Cc1ccccc1)NC(=O)OCc1ccccc1)C(=O)N[C@@H](CC(C)C)[C@@H](O)c1ncnn1C (stereo partly drawn) [N-[N-(Benzyloxycarbonyl)-L-phenylalanyl-L-2-(2-methylpropoxy)glycl]-(S)2-amino-4-methyl(R)1-(1-methyl-1H-1,2,4-triazol-5-yl)pentan-1-ol] | % Renin Inhibition (Molar Concentration 1 × 10^-4): 32% |
| 6.33 | CC(C)CO[C@H](NC(=O)[C@H](Cc1ccccc1)NC(=O)OCc1ccccc1)C(=O)N[C@@H](Cc1ccccc1)[C@@H](O)c1nccs1 [N-[N-(Benzyloxycarbonyl)-L-phenylalanyl-L-2-(2-methylpropxy)glycyl]-(S)2-amino-3-phenyl-(R)1-(2-thiazolyl)propan-1-ol] | % Renin Inhibition (Molar Concentration 1 × 10^-4): 85.0%; % Renin Inhibition (Molar Concentration 1 × 10^-5): 84.6%; % Renin Inhibition (Molar Concentration 1 × 10^-6): 76.2% |
| 5.07 | CC(C)C[C@H](NC(=O)C(NC(=O)[C@H](Cc1ccccc1)NC(=O)OCc1ccccc1)OC1CCCCC1)[C@@H](O)c1nccs1 (stereo partly drawn) [N-[N-(Benzyloxycarbonyl)-L-phenylalanyl-L-2-(cyclohexyloxy)glycyl]-(S)2-amino-4-methyl-(R)1-(2-thiazolyl)pentan-1-ol] |  |
| 6.80 | CC(C)COC(NC(=O)OCc1ccccc1)C(=O)N[C@@H](CC1CCCCC1)[C@@H](O)c1ccccn1 (stereo partly drawn) [N-[N-(Phenylmethoxy)carbonyl-L-2-(2-methylpropoxy)glycyl]-(S)2-amino-3-cyclohexyl(R)1-(2-pyridinyl)propan-1-ol] |  |
| 5.06 | CC(C)OC(NC(=O)[C@H](Cc1ccccc1)NC(=O)OCc1ccccc1)C(=O)N[C@@H](CC1CCCCC1)[C@@H](O)c1nccs1 (stereo partly drawn) [N-[N-(Phenylmethoxy)carbonyl-L-phenylalanyl-D-2-(1-methyleth] [N-[N-[(phenylmethoxy)carbonyl-L-phenylalanyl-D-2-(1-methylethoxy)glycyl](S)2-amino-3-cyclohexyl-(R)1-(2-thiazolyl)propan-1-ol] |  |
| 4.54 | CC(C)CO[C@@H](NC(=O)[C@H](Cc1ccccc1)NC(=O)OCc1ccccc1)C(=O)N[C@@H](CC1CCCCC1)[C@@H](O)c1ccccn1 [N-[N-(Phenylmethoxy)carbonyl-L-phenylalanyl-D-2-(2-methylpropoxy)glycyl]-(S)2-amino-3-cyclohexyl(R)1-(2-pyridinyl)propan-1-ol] |  |
| 9.00 | CC(C)OC(NC(=O)[C@H](Cc1ccccc1)NC(=O)OCc1ccccc1)C(=O)N[C@@H](CC1CCCCC1)[C@@H](O)c1nccs1 (stereo partly drawn) [N-[N-(Phenylmethoxy)carbonyl-L-phenylalanyl-L-2-(1-methyleth] [N-[N-[(Phenylmethoxy)carbonyl-L-phenylalanyl-L-2-(1-methylethoxy)glycyl]-(S)2-amino-b 3-cyclohexyl-(R)1-(2-thiazolyl)propan-1-ol] |  |
| 7.34 | CC(C)SC(NC(=O)[C@H](Cc1ccccc1)NC(=O)OCc1ccccc1)C(=O)N[C@@H](CC1CCCCC1)[C@@H](O)c1ccccn1 (stereo partly drawn) [N-[N-(Phenylmethoxy)carbonyl-L-phenylalanyl-L-2-(isopropylth] [N-[N-[(Phenylmethoxy)carbonyl]-L-phenylalanyl-L-2-(isopropylthio)glycyl]-(S)2-amino-3-cyclohexyl-(R)1-(2-pyridinyl)propan-1-ol] |  |
| 4.80 | CC(C)SC(NC(=O)[C@H](Cc1ccccc1)NC(=O)OCc1ccccc1)C(=O)N[C@@H](CC1CCCCC1)[C@@H](O)c1ccccn1 (stereo partly drawn) [N-[N-(phenylmethoxy)carbonyl-L-phenylalanyl-D-2-(isopropylth] [N-[N[(phenylmethoxy)carbonyl]-L-phenylalanyl-D-2-(isopropylthio)glycyl]-(S)2-amino-3-cyclohexyl-(R)1-(2-pyridinyl)-propan-1-ol] |  |
| 7.62 | CC(C)OC(NC(=O)[C@H](Cc1ccccc1)NC(=O)OCc1ccccc1)C(=O)N[C@@H](CC1CCCCC1)[C@@H](O)c1ccccn1 (stereo partly drawn) [N-[N-[ (Phenylmethoxy)carbonyl]-L-phenylalanyl-L-2-(1-methylethoxy)glycyl]-(S)2-amino-3-cyclohexyl-(R)1-(2-pyridinyl)propan-1-ol] |  |
| 4.85 | CC(C)C[C@H](NC(=O)C(NC(=O)[C@H](Cc1ccccc1)NC(=O)OCc1ccccc1)SC(C)C)[C@@H](O)c1nccs1 (stereo partly drawn) [N-[N-[(Phenylmethoxy)carbonyl-L-phenylalanyl-L-2-(isopropylthio)glycyl]-(S)2-amino-4-methyl-(R)1-(2-thiazaolyl)pentan-1-ol] |  |
| 6.00 | CC(C)O[C@@H](NC(=O)[C@H](Cc1ccccc1)NC(=O)OCc1ccccc1)C(=O)N[C@@H](CC1CCCCC1)[C@@H](O)c1ccccn1 [N-[N-[(Phenylmethoxy)carbonyl]-L-phenylalanyl-D-2-(1-methylethoxy)glycyl]-(S)2-amino-3-cyclohexyl-(R)1-(2-pyridinyl)propan-1-ol] |  |
|  | CC(C)C[C@H](NC(=O)C(NC(=O)[C@H](Cc1ccccc1)NC(=O)OCc1ccccc1)SC(C)C)[C@@H](O)c1nccs1 (stereo partly drawn) [N-[N-[(phenylmethoxy)carbonyl]-L-phenylalanyl-D-2-(isopropylthio)glycyl]-(S)2-amino-4-methyl-(R)1-(2-thiazolyl)pentan-1-ol] | % Renin Inhibition (Molar Concentration 1 × 10^-4): 25% |
| 4.96 | CC(C)COC(NC(=O)[C@H](Cc1ccccc1)NC(=O)OCc1ccccc1)C(=O)N[C@@H](CC1CCCCC1)[C@@H](O)c1nccs1 (stereo partly drawn) [N-[Phenylmethoxy)carbonyl]-L-phenylalanyl-D-2-(2-methylpropo] [N-[(Phenylmethoxy)carbonyl]-L-phenylalanyl-D 2-(2-methylpropoxy)glycyl-(1R,2S)-2-amino-3-cyclohexyl-1-(2-thiazolyl)propan-1-ol] |  |

| SMILES | pIC50 | other results |
| --- | --- | --- |
| CC(C)C[C@H](NC(=O)[C@H](Cc1ccccc1)NC(=O)OC(C)(C)C)C(=O)N[C@@H](CC(C)C)[C@@H](O)c1cccs1 [N-[N-(tert-Butoxycarbonyl)-L-phenylalanyl-L-leucyl]-(S)2-amino-4-methyl-(R)1-(2-thienyl)-pentan-1-ol] | 5.35 |  |
| CC(C)C[C@H](NC(=O)[C@H](Cc1ccccc1)NC(=O)OC(C)(C)C)C(=O)N[C@@H](CC1CCCCC1)[C@@H](O)c1ccco1 [N-[N-tert-Butoxycarbonyl)-L-phenylalanyl-L-leucyl]-(S)2-amino-3-cyclohexyl-(R)1-(2-furanyl)propan-1-ol] | 7.62 |  |
